Data reported in patent publication US5565483A, “3-substituted oxindole derivatives as potassium channel modulators” (Bristol-Myers Squibb Company, priority 1995, dated 1996).

Test system: cloned mammalian (mSIo or hSIo) BK channels
Test: Increase of cloned BK-mediated outward current in Xenopus oocytes, two-electrode voltage clamp
Format: cell-based
Conditions: at 20 μM; at least 5 oocytes; mSIo or hSIo expressed in Xenopus oocytes
Procedure: The ability of compounds described in the present invention to open BK channels and increase whole-cell outward (K^+) BK-mediated currents was assessed under voltage-clamp conditions by determining their ability to increase cloned mammalian (mSIo or hSIo) BK--mediated outward current heterologously expressed in Xenopus oocytes [Butler, A., et al., Science, 261:221-224 (1993); and Dworetzky, S. I., etal., Mol. Brain Res., 27: 189-193 (1994)]. The two BK constructs employed represent nearly structurally identical homologous proteins, and have proven to be pharmacologically identical in our tests. To isolate BK current from native (background, non-BK) current, the specific and potent BK channel-blocking toxin iberiotoxin (IBTX) [Galvez, A., et al., J. Biol. Chem. 265:11083-11090 (1990)] was employed at a supramaximal concentration (50 nM). The relative contribution of BK channels current to total outward current was determined by subtraction of the current remaining in the presence of IBTX (non-BK current) from the current profiles obtained in all other experimental conditions (control, drug, and wash). […] All compounds were tested in at least 5 oocytes and are reported at the single concentration of 20 uM; the effect of the selected compounds of Formula I on BK current was expressed as the percent of control IBTX-sensitive current and is listed in Table I. Recordings were accomplished using standard two-electrode voltage clamp techniques [Stuhmer, W., et al., Methods in Enzymology, Vol. 207:319-339 (1992)]; voltage-clamp protocols consisted of 500-750 ms duration step depolarizations from a holding potential of -60 mV to +140 mV in 20 mV steps. The experimental media (modified Barth's solution) consisted of (in mM): NaCl (88), NaHCO3 (2.4), KCl (1.0), HEPES (10), MgSO4 (0.82), Ca(NO3)2 (0.33), CaCl2 (0.41); pH 7.5.

Structure (SMILES)	BK Current, percent of control IBTX-sensitive current
O=C1Nc2cc(Cl)cc(Cl)c2C1c1cc(Cl)ccc1O (racemic) [Example 31, (±)-3-(5-Chloro-2-hydroxyphenyl)-4,6-dichloro-1,3-dihydro-2H-indol-2-one]	+ (+ = 100-125%)
O=C1Nc2cc(C(F)(F)F)ccc2C1(O)c1cc(Cl)ccc1O (single isomer, unassigned; (-)) [Example 13, (-)-3-(5-Chloro-2-hydroxyphenyl)-1,3-dihydro-3-hydroxy-6-(trifluoromethyl)-2H-indol-2-one]	++ (++ = 125-150%)
O=C1Nc2c(C(F)(F)F)cccc2C1(O)c1cc(Cl)ccc1O (racemic) [Example 7, (±)-3-(5-Chloro-2-hydroxyphenyl)-1,3-dihydro-3-hydroxy-7-(trifluoromethyl)-2H-indol-2-one]	+ (+ = 100-125%)
COc1ccc(Cl)cc1C1(F)C(=O)Nc2cc(C(F)(F)F)ccc21 (racemic) [Example 14, (±)-3-(5-Chloro-2-methoxyphenyl)-1,3-dihydro-3-fluoro-6-(trifluoromethyl)-2H-indol-2-one]	++ (++ = 125-150%)
O=C1Nc2cc(-c3ccccc3)ccc2C1c1cc(Cl)ccc1O (racemic) [Example 16, (±)-3-(5-Chloro-2-hydroxyphenyl)-1,3-dihydro-6-phenyl-2H-indol-2-one]	+++ (+++ = >150%)
O=C1Nc2cc(C(F)(F)F)ccc2C1(O)c1cc(C(F)(F)F)ccc1O (racemic) [Example 9, (±)-1,3-Dihydro-3-hydroxy-3-[2-hydroxy-5-(trifluoromethyl)phenyl]-6-(trifluoromethyl)-2H-indol-2-one]	++ (++ = 125-150%)
COc1ccc(Cl)cc1C1(F)C(=O)Nc2ccc(F)cc21 (racemic) [Example 25, (±)-3-(5-Chloro-2-methoxyphenyl)-1,3-dihydro-3,5-difluoro-2H-indol-2-one]	+ (+ = 100-125%)
O=C1Nc2cc(Cl)cc(Cl)c2C1(O)c1cc(Cl)ccc1O (racemic) [Example 6, (±)-3-(5-Chloro-2-dhydroxyphenyl)-4,6-dichloro-1,3-dihydro-3-hydroxy-2-H-indol-2-one]	+ (+ = 100-125%)
O=C1Nc2cc(I)ccc2C1c1cc(Cl)ccc1O (racemic) [Example 33, (±)-3-(5-Chloro-2-hydroxyphenyl)-1,3-dihydro-6-iodo-2H-indol-2-one]	+++ (+++ = >150%)
O=C1Nc2c(ccc3ccccc23)C1(O)c1cc(Cl)ccc1O (racemic) [Example 15, (±)-3-(5-Chloro-2-hydroxyphenyl)-1,3-dihydro-3-hydroxy-2H-benz[g]indol-2-one]	+++ (+++ = >150%)
O=C1Nc2cc(C(F)(F)F)ccc2C1(O)c1cc(Cl)ccc1O (racemic) [Example 3, (±)-3-(5-Chloro-2-hydroxyphenyl)-1,3-dihydro-3-hydroxy-6-(trifluoromethyl)-2H-indol-2-one]	++ (++ = 125-150%)
O=C1Nc2ccc3ccccc3c2C1c1cc(Cl)ccc1O (racemic) [Example 22, (±)-3-(5--Chloro-2-hydroxyphenyl)-1,3-dihydro-2H-benz[e]indol-2-one]	+++ (+++ = >150%)
O=C1Nc2cc(C(F)(F)F)ccc2C1c1cc(Cl)ccc1O (racemic) [Example 4, (±)-3-(5-Chloro-2-hydroxyphenyl)-1,3-dihydro-6-(trifluoromethyl)-2H-indol-2-one]	+++ (+++ = >150%)
COc1ccc(Cl)cc1C1(O)C(=O)Nc2cc(C(F)(F)F)ccc21 (racemic) [Example 1, (±)-3-(5-Chloro-2-methoxyphenyl)-1,3-dihydro-3-hydroxy-6-(trifluoromethyl)-2H-indol-2-one]	+ (+ = 100-125%)

Test system: cortical infarct volume after MCAO
Test: Permanent middle cerebral artery occlusion (MCAO) focal stroke model
Format: in vivo, spontaneously hypertensive rat
Conditions: intraparitoneally 10 mg/kg, single bolus 2 hours after MCAO; infarct measured 24 hours after MCAO; vs vehicle-treated control
Text: To determine the ability of these compounds to reduce cell loss resulting from neuronal ischemia, a standard rodent model of permanent focal ischemia, involving occlusion of the middle cerebral artery in the spontaneously hypertensive rat (MCAO model) was employed [Tamura, A., et al., Journal of Cerebral Blood Flow and Metabolism, Volume 1, 53-60, (1981)].
Selected compounds have been evaluated in the focal stroke model involving permanent middle cerebral artery occlusion (MCAO) in the spontaneously hypertensive rat. This procedure results in a reliably large neocortical infarct volume that is measured by means of vital dye exclusion in serial slices through the brain 24 hours after MCAO. In the present test, compounds were administered using an i.v. or […]. route of administration at two hours after occlusion.

Structure (SMILES)	reduction of cortical infarct volume
O=C1Nc2cc(C(F)(F)F)ccc2C1c1cc(Cl)ccc1O (racemic) [Example 4, (±)-3-(5-Chloro-2-hydroxyphenyl)-1,3-dihydro-6-(trifluoromethyl)-2H-indol-2-one]	about 26%

Same assay, conditions: intravenously 0.03 mg/kg, single bolus 2 hours after MCAO; infarct measured 24 hours after MCAO; vs vehicle-treated control

Structure (SMILES)	reduction of cortical infarct volume
O=C1Nc2cc(C(F)(F)F)ccc2C1c1cc(Cl)ccc1O (racemic) [Example 4, (±)-3-(5-Chloro-2-hydroxyphenyl)-1,3-dihydro-6-(trifluoromethyl)-2H-indol-2-one]	about 18%
